# Source: US5130307A, “Aminoesters of rapamycin” (American Home Products Corporation, priority 1991, dated 1992)
# Key:
# [1] = test system: popliteal lymph node; assay: popliteal lymph node (PLN) test procedure, in vivo mixed lymphocyte reaction; parameters: species or system C3H mice (BALB/c donors)
# Method: (§1) Immunosuppressive activity was evaluated in an in vitro standard pharmacological test procedure to measure lymphocyte proliferation (LAF) and in two in vivo standard pharmacological test procedures. The first in vivo procedure was a popliteal lymph node (PLN) test procedure which measured the effect of compounds of this invention on a mixed lymphocyte reaction and the second in vivo procedure evaluated the survival time of a pinch skin graft.
# A mixed lymphocyte reaction (MLR) occurs when lymphoid cells from genetically distinct animals are combined in tissue culture. Each stimulates the other to undergo blast transformation which results in increased DNA synthesis that can be quantified by the incorporation of tritiated thymidine. Since stimulating a MLR is a function of disparity at Major Histocompatibility antigens, an in vivo popliteal lymph node (PLN) test procedure closely correlates to host vs. graft disease. Briefly, irradiated spleen cells from BALB/c donors are injected into the right hind foot pad of recipient C3H mice. The drug is given daily, p.o. from Day 0 to Day 4. On Day 3 and Day 4, tritiated thymidine is given i.p., b.i.d. On Day 5, the hind popliteal lymph nodes are removed and dissolved, and radioactivity counted. […] Percent suppression is calculated using the non-drug treated animals as allogenic control. […]
# [2] = test system: pinch skin graft from male DBA/2 donors transplanted to male BALB/c recipients; assay: survival time of pinch skin graft; assay type: in vivo; details: for Skin Graft (days + SD), mean graft survival time: intraperitoneally
# Method: as §1
# The second in vivo test procedure is designed to determine the survival time of pinch skin graft from male DBA/2 donors transplanted to male BALB/c recipients. The method is adapted from Billingham R.E. and Medawar P.B., J. Exp. Biol. 28:385-402, (1951). Briefly, a pinch skin graft from the donor is grafted on the dorsum of the recipient as a homograft, and an autograft is used as control in the same region. […] Untreated recipients serve as rejection control. The graft is monitored daily and observations are recorded until the graft becomes dry and forms a blackened scab. This is considered as the rejection day. The mean graft survival time (number of days ±S.D.) of the drug treatment group is compared with the control group.
# [3] = test system: Candida albicans ATCC 38248; assay: antifungal plate test, MIC; assay type: cell-based; details: ATCC38248
# Method: (§2) The following represents the typical procedure used. Compound to be tested was placed on sterile dried 1/4" plate disks, and allowed to dry. Agar plates were seeded with fungi and allowed to solidify. The impregnated disks were placed on the seeded Agar surface and incubated for the time required for the particular culture. Results are expressed in MIC (μg/ml) to inhibit growth.
# [4] = test system: Candida albicans ATCC 10231; assay: antifungal plate test, MIC; assay type: cell-based; details: ATCC10231
# Method: as §2
# [5] = test system: Candida albicans 3669; assay: antifungal plate test, MIC; assay type: cell-based
# Method: as §2
# [6] = test system: Candida albicans ATCC 38246; assay: antifungal plate test, MIC; assay type: cell-based; details: ATCC38246
# Method: as §2
# [7] = test system: Candida albicans ATCC 38247; assay: antifungal plate test, MIC; assay type: cell-based; details: ATCC38247
# Method: as §2
# [8] = test system: transplant rejection; details: cited from earlier work
# [9] = test system: IgE-like antibodies; details: cited from earlier work
# [10] = test system: Candida albicans; details: in vitro and in vivo; cited from earlier work
# [11] = alone or in combination with picibanil; cited from earlier work
# [12] = test system: experimental allergic encephalomyelitis; details: in vivo; cited from earlier work
MIC [3],MIC [4],MIC [5],MIC [6],MIC [7],SMILES,effect on T cell proliferation in PLN (in words) ([1]; negative ratio),"Skin Graft (days + SD), mean graft survival time [2]",survival time of the skin graft (in words) ([2]; untreated grafts typically rejected within 6-7 days),inhibition of transplant rejection / immunosuppressive effect (in words) [8],inhibition of the formation of IgE-like antibodies (in words) [9],"PLN (ratio) ([1]; p.o. daily Day 0 to Day 4, ratio, rapamycin 1.0)",antifungal activity (in words) [10],antitumor activity (in words) [11],effectiveness in experimental allergic encephalomyelitis model (in words) [12]
0.2 µg/mL,0.2 µg/mL,0.4 µg/mL,> 0.4 µg/mL,0.1 µg/mL,"CO[C@H]1C[C@@H]2CC[C@@H](C)[C@@](O)(O2)C(=O)C(=O)N2CCCC[C@H]2C(=O)O[C@H]([C@H](C)C[C@@H]2CC[C@@H](OC(=O)[C@H](CCCCNC(=O)OC(C)(C)C)NC(=O)OC(C)(C)C)[C@H](OC)C2)CC(=O)[C@H](C)/C=C(\C)[C@@H](O)[C@@H](OC)C(=O)[C@H](C)C[C@H](C)/C=C/C=C/C=C/1C [Example 12, Rapamycin-42-ester with N^α, N^ε -bis[(1,1-dimethylethoxy)carbonyl]-L-lysine]",may cause T cell proliferation in the PLN test procedure,12.0 ± 2.0 days,increased survival time observed in the skin graft test procedure,–,–,–,–,–,–
–,–,–,–,–,CO[C@H]1C[C@@H]2CC[C@@H](C)[C@@](O)(O2)C(=O)C(=O)N2CCCC[C@H]2C(=O)O[C@H]([C@H](C)C[C@@H]2CC[C@@H](O)[C@H](OC)C2)CC(=O)[C@H](C)/C=C(\C)[C@@H](O)[C@@H](OC)C(=O)[C@H](C)C[C@H](C)/C=C/C=C/C=C/1C [Rapamycin],–,12.0 ± 1.7 days,–,effective in inhibiting transplant rejection,effectively inhibited the formation of IgE-like antibodies,1.0,"antifungal activity, particularly against Candida albicans, both in vitro and in vivo",has been shown to have antitumor activity,effective in the experimental allergic encephalomyelitis model
